Data set [1] in a line: AUC in rat at 5 mg/kg, po. In kind it is ADME, organism-based. Further details: dose 5 mg/kg, route po. The following applies: in vivo.
The nature of data set [2]: Volume of distribution at steady state in overnight fasted Beagle dog at 2 mg/kg, po or 1 mg/kg, iv. It is filed as ADME, organism-based, Canis lupus familiaris. The following applies: in vivo.
Data set [3] can be described thus: Volume of distribution at steady state in overnight fasted cynomolgus monkey at 2 mg/kg, po or 1 mg/kg, iv. The following applies: in vivo. It is filed as ADME, organism-based, Macaca fascicularis.
A short description of data set [4]: Oral bioavailability in overnight fasted Sprague-Dawley rat using spray-dried dispersion at 5 mg/kg. It is filed as ADME, organism-based. The following applies: in vivo.
Data set [5] can be described thus: Oral bioavailability in overnight fasted cynomolgus monkey using spray-dried dispersion at 2 mg/kg. It is filed as ADME, organism-based, Macaca fascicularis. The following applies: in vivo.
Data set [6] in a line: Cmax in overnight fasted Sprague-Dawley rat at 5 mg/kg, po or 1 mg/kg, iv. In kind it is ADME, organism-based. Further details: dose 5 mg/kg, route po. The following applies: in vivo.
Data set [7] can be described thus: Metabolic stability in human liver microsomes assessed as half life in presence of NADPH at 0.5 uM by LC-MS/MS analysis. In kind it is ADME, Microsome.
Data set [8] can be described thus: Metabolic stability in rat liver microsomes assessed as half life in presence of NADPH at 0.5 uM by LC-MS/MS analysis. In kind it is ADME, Microsome.
For a further data set, the target named is T1, Cytochrome P450 1A2 (Homo sapiens, UniProt P05177).
T1 sequence (P05177 whole entry): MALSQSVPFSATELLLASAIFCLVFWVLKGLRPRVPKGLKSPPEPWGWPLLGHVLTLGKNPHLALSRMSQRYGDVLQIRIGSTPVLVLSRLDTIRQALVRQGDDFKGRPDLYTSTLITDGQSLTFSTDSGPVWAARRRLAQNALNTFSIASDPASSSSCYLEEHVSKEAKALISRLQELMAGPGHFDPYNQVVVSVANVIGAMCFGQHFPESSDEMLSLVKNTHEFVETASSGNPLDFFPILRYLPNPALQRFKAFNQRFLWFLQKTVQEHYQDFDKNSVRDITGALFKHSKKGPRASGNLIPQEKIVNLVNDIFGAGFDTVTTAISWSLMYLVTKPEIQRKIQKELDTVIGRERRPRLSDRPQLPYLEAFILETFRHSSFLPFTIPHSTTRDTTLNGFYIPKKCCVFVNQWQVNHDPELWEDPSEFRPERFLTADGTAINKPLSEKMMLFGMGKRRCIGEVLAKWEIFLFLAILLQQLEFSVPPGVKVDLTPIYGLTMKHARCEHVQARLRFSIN
Briefly: Inhibition of CYP1A2 (unknown origin). It is filed as ADME.

For a further data set, the target named is T2, Cytochrome P450 2C8 (Homo sapiens, UniProt P10632).
T2 sequence (P10632 whole entry): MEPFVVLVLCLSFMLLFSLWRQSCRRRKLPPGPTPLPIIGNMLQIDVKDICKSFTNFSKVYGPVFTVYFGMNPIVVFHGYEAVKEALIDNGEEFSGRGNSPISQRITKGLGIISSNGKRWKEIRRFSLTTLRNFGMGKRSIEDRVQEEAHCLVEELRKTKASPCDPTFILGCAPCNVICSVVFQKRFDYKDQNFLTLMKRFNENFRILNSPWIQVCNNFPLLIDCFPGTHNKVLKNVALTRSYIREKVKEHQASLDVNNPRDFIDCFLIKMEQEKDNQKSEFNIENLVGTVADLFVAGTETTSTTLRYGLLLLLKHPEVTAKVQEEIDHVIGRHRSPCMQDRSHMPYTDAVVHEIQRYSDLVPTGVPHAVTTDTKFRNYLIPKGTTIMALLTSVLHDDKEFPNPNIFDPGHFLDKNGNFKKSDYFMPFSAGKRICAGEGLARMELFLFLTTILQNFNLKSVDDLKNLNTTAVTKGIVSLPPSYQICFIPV
In words: Inhibition of CYP2C8 (unknown origin). It is filed as ADME.

Data set [9] is described as follows: Lipophilicity, log D of the compound at pH 6.5. In kind it is physicochemical. The following applies: buffer.
The target of the next data set is T3, CYP1A2 (Homo sapiens, UniProt P05177).
T3 sequence (P05177 whole entry): T1 sequence (P05177 whole entry)
Briefly: Induction of CYP1A2 in human hepatocyte. It is filed as ADME, cell-based. The following applies: hepatocytes.

A further data set deals with T4, CYP2B6 (Homo sapiens, UniProt P20813).
T4 sequence (P20813 whole entry): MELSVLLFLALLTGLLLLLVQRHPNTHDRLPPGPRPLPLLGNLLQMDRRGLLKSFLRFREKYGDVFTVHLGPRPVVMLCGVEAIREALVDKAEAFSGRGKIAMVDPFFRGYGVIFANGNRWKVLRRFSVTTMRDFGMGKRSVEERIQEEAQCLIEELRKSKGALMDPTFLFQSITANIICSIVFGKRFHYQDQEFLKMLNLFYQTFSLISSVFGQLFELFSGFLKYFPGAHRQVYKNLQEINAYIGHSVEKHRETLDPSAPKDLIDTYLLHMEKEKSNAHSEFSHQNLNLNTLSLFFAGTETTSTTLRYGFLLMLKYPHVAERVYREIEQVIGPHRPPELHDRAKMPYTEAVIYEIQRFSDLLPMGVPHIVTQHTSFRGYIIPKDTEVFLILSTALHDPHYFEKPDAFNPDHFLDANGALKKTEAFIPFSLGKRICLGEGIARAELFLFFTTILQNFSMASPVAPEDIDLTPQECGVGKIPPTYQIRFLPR
In words: Induction of CYP2B6 in human hepatocyte. In kind it is ADME, cell-based. The following applies: hepatocytes.

Data set [10] is described as follows: Half life in human liver microsomes at […] measured upto 300 mins by LC-MS/MS analysis. In kind it is ADME, Microsome.
The target in data set [11] is T5, UDP-glucuronosyltransferase 1A1 (Homo sapiens, UniProt P22309).
T5 sequence (P22309 whole entry): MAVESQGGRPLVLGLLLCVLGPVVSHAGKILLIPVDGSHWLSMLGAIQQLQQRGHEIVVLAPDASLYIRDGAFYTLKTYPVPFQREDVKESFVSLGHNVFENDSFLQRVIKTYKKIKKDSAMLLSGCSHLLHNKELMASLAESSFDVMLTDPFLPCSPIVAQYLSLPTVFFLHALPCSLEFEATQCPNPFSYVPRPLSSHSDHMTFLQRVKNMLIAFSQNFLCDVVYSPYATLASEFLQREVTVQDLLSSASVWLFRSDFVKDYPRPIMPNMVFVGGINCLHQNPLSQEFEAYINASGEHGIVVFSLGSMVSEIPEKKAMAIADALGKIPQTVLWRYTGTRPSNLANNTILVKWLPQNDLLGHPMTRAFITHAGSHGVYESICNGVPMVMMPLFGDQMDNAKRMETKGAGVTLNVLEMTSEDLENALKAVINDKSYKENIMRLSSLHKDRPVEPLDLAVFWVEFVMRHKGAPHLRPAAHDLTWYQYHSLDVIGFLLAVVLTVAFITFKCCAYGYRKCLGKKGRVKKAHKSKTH
In words: Inhibition of UGT1A1(unknown origin).

Data set [12] can be described thus: Binding affinity to HIV1 wild type Gag assessed as dissociation constant. More on the design: species or system Human immunodeficiency virus 1.

Bounds are passed on as bounds.

On to `C=C(C)[C@@H]1CC[C@]2(NCCN3CCS(=O)(=O)CC3)CC[C@]3(C)[C@H](CC[C@@H]4[C@@]5(C)CC=C(C6=CC[C@@](CF)(C(=O)O)CC6)C(C)(C)[C@@H]5CC[C@]43C)[C@@H]12` [FIPRAVIRIMAT], for which the exposure (AUC) in [1] stood at 7.368 µM·h. For the same compound, the Vdss was determined as 0.49 L/kg in data set [2] and 0.43 L/kg in data set [3]. Also, the bioavailability in data set [4] was found to be 40%; in [5], 28%. The compound further gave a Cmax in data set [6] of 900 nM. Moreover, the half-life at 0.5 µM in [7] was above 2 h; in data set [8], 1.5 h. Also, the IC50 on Cytochrome P450 1A2 was above 13.3 µM; on Cytochrome P450 2C8, above 13.3 µM; in [11], 3.9 µM. The logD in [9] worked out at 4.9. Moreover, the concentration for a half-maximal effect (EC50) on CYP1A2 and at CYP2B6 was above 5 µM throughout. Further, the half-life in [10] is above 24 h. The Kd in data set [12] was determined as 0.0014 µM.
